Reference: patent US20260365671A1, “HETEROCYCLIC COMPOUND” (Takeda Pharmaceutical Company Limited, priority 2022, published 2026)

Tests used:
[1] = test system: NF-κB pathway; test: TNF-α assay (THP-1 cells differentiated to macrophages with IFN-γ, NF-κB pathway activated with LPS; ELISA); assay type: cell-based, Human; conditions: Homo sapiens, THP-1, THP-1 macrophages, compound 30 min, 50 ng/mL LPS 3 hours
In short: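 TNF-α release measured by ELISA after 3 h stimulation with 50 ng/mL LPS, following 30 min compound pretreatment (37 °C, no FBS). Cells were THP-1 macrophages primed with IFN-γ 25 ng/mL for 24 h. IC50 derived by logistic curve fit.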

[2] = target: T1, NLRP3 inflammasome (Homo sapiens, UniProt Q96P20); test: IL-1β TR-FRET assay (THP-1 cells differentiated to macrophages with IFN-γ, LPS primed, ATP activated; HTRF); assay type: cell-based; conditions: THP-1 macrophages, 50 ng/mL LPS priming, compound 30 min, 20 mM ATP 2 hours
T1 construct: IL-1beta HTRF
T1 sequence (Q96P20 whole entry): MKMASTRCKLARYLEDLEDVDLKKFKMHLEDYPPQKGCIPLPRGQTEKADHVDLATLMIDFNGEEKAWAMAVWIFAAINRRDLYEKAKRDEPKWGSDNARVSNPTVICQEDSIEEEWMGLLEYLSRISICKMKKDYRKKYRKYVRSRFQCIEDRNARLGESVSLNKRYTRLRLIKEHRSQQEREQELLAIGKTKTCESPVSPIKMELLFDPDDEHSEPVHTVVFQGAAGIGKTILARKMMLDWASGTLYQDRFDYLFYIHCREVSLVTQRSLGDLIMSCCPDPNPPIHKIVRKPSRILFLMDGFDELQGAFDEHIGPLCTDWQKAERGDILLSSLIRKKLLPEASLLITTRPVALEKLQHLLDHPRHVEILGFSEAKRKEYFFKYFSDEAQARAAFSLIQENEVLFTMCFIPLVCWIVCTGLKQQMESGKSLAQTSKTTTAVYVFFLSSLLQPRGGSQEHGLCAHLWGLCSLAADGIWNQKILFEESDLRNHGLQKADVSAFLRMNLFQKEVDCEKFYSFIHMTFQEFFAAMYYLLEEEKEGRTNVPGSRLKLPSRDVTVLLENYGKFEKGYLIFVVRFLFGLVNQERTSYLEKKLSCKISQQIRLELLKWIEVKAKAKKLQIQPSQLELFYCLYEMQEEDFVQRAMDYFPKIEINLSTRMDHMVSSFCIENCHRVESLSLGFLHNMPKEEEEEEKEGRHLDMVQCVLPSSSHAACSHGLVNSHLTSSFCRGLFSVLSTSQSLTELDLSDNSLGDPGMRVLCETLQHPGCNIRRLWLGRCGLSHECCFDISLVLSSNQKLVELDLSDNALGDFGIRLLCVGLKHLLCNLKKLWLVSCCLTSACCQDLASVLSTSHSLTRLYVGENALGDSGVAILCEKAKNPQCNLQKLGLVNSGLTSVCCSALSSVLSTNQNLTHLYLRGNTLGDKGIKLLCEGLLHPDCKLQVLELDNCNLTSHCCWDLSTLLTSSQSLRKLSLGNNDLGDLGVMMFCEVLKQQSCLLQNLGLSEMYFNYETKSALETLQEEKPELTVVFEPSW
In short: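 IL-1β release was read by HTRF after 16–24 h antibody incubation at room temperature, using supernatants from THP-1-derived macrophages (IFN-γ 25 ng/mL, LPS 50 ng/mL priming) given compound 30 min and then 20 mM ATP for 2 h. % inhibition versus concentration was fitted logistically for IC50.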

Row | Structure (SMILES) | IC50 [1] [nM] | IC50 [2] [nM]
1 | CN1C[C@H](F)C[C@@H](Nc2nc3nn(-c4c(O)cc(Cl)cc4C(F)F)cc3s2)C1 [Example 75, 5-chloro-3-(difluoromethyl)-2-(5-{[(3R,5R)-5-fluoro-1-methylpiperidin-3-yl]amino}-2H-pyrazolo [3,4-d][1,3]thiazol-2-yl)phenol] | > 30000 | 16
2 | CCc1cc(C)cc(O)c1-n1cc2sc(N[C@@H]3C[C@@H](F)CN(C)C3)nc2n1 [Example 20, 3-ethyl-2-(5-{[(3R,5R)-5-fluoro-1-methylpiperidin-3-yl]amino}-2H-pyrazolo[3,4-d][1,3]thiazol-2-yl)-5-methylphenol] | > 30000 | 9.2
3 | Cc1cc(C)c(-n2cc3sc(NCC(F)(F)CO)nc3n2)c(O)c1 [Example 152, 2-{5-[(2,2-difluoro-3-hydroxypropyl)amino]-2H-pyrazolo[3,4-d][1,3]thiazol-2-yl}-3,5-dimethylphenol] | > 30000 | 280
4 | COC(=O)N1CC[C@@H](Nc2nc3nn(-c4c(C)cc(C)cc4O)cc3s2)C1 [Example 155, methyl (3R)-3-{[2-(2-hydroxy-4,6-dimethylphenyl)-2H-pyrazolo[3,4-d][1,3]thiazol-5-yl]amino}pyrrolidine-1-carboxylate] | > 30000 | 340
5 | Cc1cc(F)cc(O)c1-n1cc2sc(N[C@@H]3CCCN(C)C3)nc2n1 [Example 5, 5-fluoro-3-methyl-2-(5-{[(3R)-1-methylpiperidin-3-yl]amino}-2H-pyrazolo[3,4-d][1,3]thiazol-2-yl)phenol] | > 30000 | 15
6 | COCCN1CCC[C@@H](Nc2nc3nn(-c4c(C)cc(C)cc4O)cc3s2)C1 [Example 36, 2-(5-{[(3R)-1-(2-methoxyethyl)piperidin-3-yl]amino}-2H-pyrazolo[3,4-d][1,3]thiazol-2-yl)-3,5-dimethylphenol] | > 30000 | 34
7 | Cc1cc(C)c(-n2cc3sc(NC4CCN(C(=O)C(C)(C)O)C4)nc3n2)c(O)c1 (stereo not drawn) [Example 102, 2-hydroxy-1-(3-{[2-(2-hydroxy-4,6-dimethylphenyl)-2H-pyrazolo[3,4-d][1,3]thiazol-5-yl]amino}pyrrolidin-1-yl)-2-methylpropan-1-one] | > 30000 | 280
8 | CCc1cc(O)c(-n2cc3sc(N[C@@H]4C[C@@H](F)CN(C)C4)nc3n2)c(CC)c1 [Example 59, 3,5-diethyl-2-(5-{[(3R,5R)-5-fluoro-1-methylpiperidin-3-yl]amino}-2H-pyrazolo[3,4-d][1,3]thiazol-2-yl)phenol] | > 30000 | 23
9 | Cc1cc(C)c(-n2cc3sc(NC4CCN(C(=O)C5CC5)C4)nc3n2)c(O)c1 (stereo not drawn) [Example 96, cyclopropyl(3-{[2-(2-hydroxy-4,6-dimethylphenyl)-2H-pyrazolo[3,4-d][1,3]thiazol-5-yl]amino}pyrrolidin-1-yl)methanone] | > 30000 | 400
10 | Cc1cc(O)c(-n2cc3sc(N[C@@H]4C[C@@H](F)CN(C)C4)nc3n2)c(OC(F)F)c1 [Example 50, 3-(difluoromethoxy)-2-(5-{[(3R,5R)-5-fluoro-1-methylpiperidin-3-yl]amino}-2H-pyrazolo[3,4-d][1,3]thiazol-2-yl)-5-methylphenol] | > 30000 | 12
11 | Cc1cc(C)c(-n2cc3sc(NC45CC(O)(C4)C5)nc3n2)c(O)c1 [Example 169, 3-{[2-(2-hydroxy-4,6-dimethylphenyl)-2H-pyrazolo[3,4-d][1,3]thiazol-5-yl]amino} bicyclo[1.1.1]pentan-1-ol] | > 30000 | 430
12 | COCC(O)CNc1nc2nn(-c3c(C)cc(C)cc3O)cc2s1 (stereo not drawn) [Example 166, 2-{5-[(2-hydroxy-3-methoxypropyl)amino]-2H-pyrazolo[3,4-d][1,3]thiazol-2-yl}-3,5-dimethylphenol] | > 30000 | 760
13 | Cc1cc(OC(F)F)cc(O)c1-n1cc2sc(N[C@@H]3C[C@@H](F)CN(C)C3)nc2n1 [Example 107, 5-(difluoromethoxy)-2-(5-{[(3R,5R)-5-fluoro-1-methylpiperidin-3-yl]amino}-2H-pyrazolo[3,4-d][1,3]thiazol-2-yl)-3-methylphenol] | > 30000 | 75

Next, values leading:

Row | IC50 [1] [nM] | IC50 [2] [nM] | Structure (SMILES)
14 | > 30000 | 260 | Cc1cc(C)c(-n2cc3sc(NC4COCC4O)nc3n2)c(O)c1 (stereo not drawn) [Example 159, 4-{[2-(2-hydroxy-4,6-dimethylphenyl)-2H-pyrazolo[3,4-d][1,3]thiazol-5-yl]amino}oxolan-3-ol]
15 | > 30000 | 590 | CCC(=O)N1CCCC(Nc2nc3nn(-c4c(C)cc(C)cc4O)cc3s2)C1 (stereo not drawn) [Example 109, 1-(3-{[2-(2-hydroxy-4,6-dimethylphenyl)-2H-pyrazolo[3,4-d][1,3]thiazol-5-yl]amino}piperidin-1-yl)propan-1-one]
16 | > 30000 | 230 | CC(=O)NCCCNc1nc2nn(-c3c(C)cc(C)cc3O)cc2s1 [Example 56, N-(3-{[2-(2-hydroxy-4,6-dimethylphenyl)-2H-pyrazolo[3,4-d][1,3]thiazol-5-yl]amino}propyl) acetamide]
17 | > 30000 | 61 | CCc1cc(C)c(-n2cc3sc(N[C@@H]4C[C@@H](F)CN(C)C4)nc3n2)c(O)c1 [Example 60, 5-ethyl-2-(5-{[(3R,5R)-5-fluoro-1-methylpiperidin-3-yl]amino}-2H-pyrazolo[3,4-d][1,3]thiazol-2-yl)-3-methylphenol]
18 | > 30000 | 660 | Cc1cc(C)c(-n2cc3sc(N[C@H]4CCOC4)nc3n2)c(O)c1 [Example 158, 3,5-dimethyl-2-(5-{[(3S)-oxolan-3-yl]amino}-2H-pyrazolo[3,4-d][1,3]thiazol-2-yl)phenol]
19 | > 10000 | 280 | Cc1cc(C)c(-n2cc3sc(NCC(C)(F)F)nc3n2)c(O)c1 [Example 139, 2-{5-[(2,2-difluoropropyl)amino]-2H-pyrazolo[3,4-d][1,3]thiazol-2-yl}-3,5-dimethylphenol]
20 | > 30000 | 1300 | Cc1cc(C)c(-n2cc3sc(NC4CC(=O)N(C)C4)nc3n2)c(O)c1 (stereo not drawn) [Example 95, 4-{[2-(2-hydroxy-4,6-dimethylphenyl)-2H-pyrazolo[3,4-d][1,3]thiazol-5-yl]amino}-1-methylpyrrolidin-2-one]
21 | > 10000 | 120 | CCc1cc(C)cc(O)c1-n1cc2sc(NC34CCC(O)(CC3)C4)nc2n1 [Example 150, 4-{[2-(2-ethyl-6-hydroxy-4-methylphenyl)-2H-pyrazolo[3,4-d][1,3]thiazol-5-yl]amino}bicyclo[2.2.1]heptan-1-ol]
22 | > 10000 | 260 | Cc1cc(C)c(-n2cc3sc(NC4CCN(C(=O)CC5CC5)C4)nc3n2)c(O)c1 (stereo not drawn) [Example 97, 2-cyclopropyl-1-(3-{[2-(2-hydroxy-4,6-dimethylphenyl)-2H-pyrazolo[3,4-d][1,3]thiazol-5-yl]amino}pyrrolidin-1-yl)ethan-1-one]
23 | > 10000 | 1500 | Cc1cc(C)c(-n2cc3sc(N[C@@H]4C[C@@H](C(F)F)CN(C)C4)nc3n2)c(O)c1 [Example 41, 2-(5-{[(3R,5R)-5-(difluoromethyl)-1-methylpiperidin-3-yl]amino}-2H-pyrazolo[3,4-d][1,3]thiazol-2-yl)-3,5-dimethylphenol]
24 | > 10000 | 240 | Cc1cc(C)c(-n2cc3sc(N[C@@H]4CC[C@@H](O)C4)nc3n2)c(O)c1 [Example 44, 2-(5-{[(1R,3R)-3-hydroxycyclopentyl]amino}-2H-pyrazolo[3,4-d][1,3]thiazol-2-yl)-3,5-dimethyphenol or 2-(5-{[(1S,3S)-3-hydroxycyclopentyl]amino}-2H-pyrazolo[3,4-d][1,3]thiazol-2-yl)-3,5-dimethylphenol (tR1)]
25 | > 10000 | 4.3 | CCN1C[C@H](F)C[C@@H](Nc2nc3nn(-c4c(O)cc(Cl)cc4C(F)F)cc3s2)C1 [Example 78, 5-chloro-3-(difluoromethyl)-2-(5-{[(3R,5R)-1-ethyl-5-fluoropiperidin-3-yl]amino}-2H-pyrazolo[3,4-d][1,3]thiazol-2-yl)phenol]
26 | > 10000 | 6800 | Cc1cc(C)c(-n2cc3sc(NC4C5CC6CC4CC(O)(C6)C5)nc3n2)c(O)c1 (stereo not drawn) [Example 151, 4-{[2-(2-hydroxy-4,6-dimethylphenyl)-2H-pyrazolo[3,4-d][1,3]thiazol-5-yl]amino} adamantan-1-ol]
27 | > 10000 | 68 | Cc1cc(C)c(-n2cc3sc(N[C@@H]4CCCN(CC(F)F)C4)nc3n2)c(O)c1 [Example 35, 2-(5-{[(3R)-1-(2,2-difluoroethyl)piperidin-3-yl]amino}-2H-pyrazolo[3,4-d][1,3]thiazol-2-yl)-3,5-dimethylphenol]
28 | > 10000 | 1500 | Cc1cc(C)c(-n2cc3sc(N[C@@H]4C[C@H](C(F)F)CN(C)C4)nc3n2)c(O)c1 [Example 33, 2-(5-{[(3R,5S)-5-(difluoromethyl)-1-methylpiperidin-3-yl]amino}-2H-pyrazolo[3,4-d][1,3]thiazol-2-yl)-3,5-dimethylphenol]
29 | > 10000 | 750 | Cc1cc(C)c(-n2cc3sc(NC[C@@H](C)OC(F)F)nc3n2)c(O)c1 [Example 172, 2-(5-{[(2R)-2-(difluoromethoxy)propyl]amino}-2H-pyrazolo[3,4-d][1,3]thiazol-2-yl)-3,5-dimethylphenol]
30 | > 10000 | 980 | Cc1cc(F)cc(O)c1-n1cc2sc(N[C@@H]3CCCC[C@H]3O)nc2n1 [Example 6, 5-fluoro-2-(5-{[(1R,2R)-2-hydroxycyclohexyl]amino}-2H-pyrazolo[3,4-d][1,3]thiazol-2-yl)-3-methylphenol]
